Assay results reported in US12624018B1, “Inhibitors of RIPK2 and medical uses thereof” (Odyssey Therapeutics, Inc., priority 2022, dated 2026).

molecular target: T1, RIPK2 enzyme (Homo sapiens, UniProt O43353); experiment: RIPK2 inhibition (ADP-Glo Kinase Assay); assay type: biochemical; details: RIPK2 5 nM, ATP 150 μM, MBP substrate, read-out: RIPK2 IC50
T1 construct: purchased Carna 09-128
Summary of the method: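 Human RIPK2 (5 nM) preincubated with compound 30 min at room temperature in 50 mM HEPES pH 7.5, 10 mM MgCl2, 2 mM DTT, 1 mM EGTA, 0.01% Brij-35, 0.05% BSA; native swine MBP as substrate. ADP formed quantified by ADP-Glo luminescence; percent inhibition relative to DMSO and no-enzyme controls.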

T1 sequence (O43353 1-299 limits assumed): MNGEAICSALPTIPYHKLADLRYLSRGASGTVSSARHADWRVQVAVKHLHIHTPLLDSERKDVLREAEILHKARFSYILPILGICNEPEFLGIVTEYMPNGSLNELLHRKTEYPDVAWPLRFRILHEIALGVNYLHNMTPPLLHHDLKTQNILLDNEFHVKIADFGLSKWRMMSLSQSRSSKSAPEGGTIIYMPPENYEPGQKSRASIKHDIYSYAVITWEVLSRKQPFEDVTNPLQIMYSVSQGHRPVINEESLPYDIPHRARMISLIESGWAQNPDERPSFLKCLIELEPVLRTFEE

Row | IC50 | Compound
1 | < 2.5 nM | CCP(=O)(CC)c1ccc2nccc(Oc3ccc(CC(=O)Nc4cnn(C(C)(C)C)c4)c(F)c3C)c2c1 [Compound 301, N-(1-(tert-butyl)-1H-pyrazol-4-yl)-2-(4-((6-(diethylphosphoryl)quinolin-4-yl)oxy)-2-fluoro-3-methylphenyl) acetamide]
2 | < 2.5 nM | Cc1c(Oc2ccnc3ccc(C(=O)N4CCNCC4)cc23)ccc(CC(=O)Nc2cnn(C(C)(C)C)c2)c1F [Compound 356, N-(1-(tert-butyl)-1H-pyrazol-4-yl)-2-(2-fluoro-3-methyl-4-((6-(piperazine-1-carbonyl)quinolin-4-yl)oxy)phenyl) acetamide]
3 | < 2.5 nM | Cc1c(Oc2ccnc3ccc([S+](C)[O-])cc23)ccc(CC(=O)Nc2cnn(C(C)(C)C)c2)c1F (single isomer, unassigned) [Compound 323, N-(1-(tert-butyl)-1H-pyrazol-4-yl)-2-(2-fluoro-3-methyl-4-((6-(methylsulfinyl)quinolin-4-yl)oxy)phenyl)acetamide]
4 | < 2.5 nM | COC(C)(C)c1cc(NC(=O)Cc2ccc(Oc3ccnc4ccc(S(C)(=O)=O)cc34)c(C)c2F)[nH]n1 [Compound 331, 2-(2-fluoro-3-methyl-4-((6-(methylsulfonyl)quinolin-4-yl)oxy)phenyl)-N-(5-(2-methoxypropan-2-yl)-1H-pyrazol-3-yl)acetamide]

Second part, the compound before the results:

Row | Compound | IC50
5 | COc1ccc2ncnc(Oc3ccc(CC(=O)Nc4cc(C(C)(C)C)ccn4)c(F)c3)c2c1 [Compound 28, N-(4-(tert-butyl)pyridin-2-yl)-2-(2-fluoro-4-((6-methoxy-quinazolin-4-yl)oxy)phenyl) acetamide] | 12.7 nM
6 | CC(C)(C)n1cc(NC(=O)Cc2ccc(Oc3ccnc4ccc(S(=O)(=O)C5CC5)cc34)cc2F)cn1 [Compound 131, N-(1-(tert-butyl)-1H-pyrazol-4-yl)-2-(4-((6-(cyclopropylsulfonyl)quinolin-4-yl)oxy)-2-fluorophenyl)acetamide] | < 2.5 nM
7 | Cc1cc(CC(=O)Nc2cnn(C(C)(C)C)c2)ccc1Oc1ccnc2ccc(OCCN)cc12 [Compound 222, 2-(4-((6-(2-aminoethoxy)quinolin-4-yl)oxy)-3-methyl-phenyl)-N-(1-(tert-butyl)-1H-pyrazol-4-yl)acetamide] | < 2.5 nM
8 | CC(C)(C)n1cc(NC(=O)Cc2ccc(Oc3ncnc4ccc(C(=O)N5CCCC5)cc34)cc2F)cn1 [Compound 27, N-(1-(tert-butyl)-1H-pyrazol-4-yl)-2-(2-fluoro-4-((6-(pyrrolidine-1-carbonyl)quinazolin-4-yl)oxy)phenyl) acetamide] | 19.2 nM
9 | CC(C)(C)n1cc(NC(=O)Cc2ccc(Oc3ccnc4ccc(P(C)(C)=O)cc34)cc2F)cn1 [Compound 36, N-(1-(tert-butyl)-1H-pyrazol-4-yl)-2-(4-((6-(dimethylphosphoryl)quinolin-4-yl)oxy)-2-fluorophenyl)acetamide] | 4.7 nM
10 | Cc1cc(CC(=O)Nc2cnn(C(C)(C)C)c2)ccc1Oc1ccnc2ccc(CN3CCNCC3)cc12 [Compound 252, N-(1-(tert-butyl)-1H-pyrazol-4-yl)-2-(3-methyl-4-((6-(piperazin-1-ylmethyl)quinolin-4-yl)oxy)phenyl)acetamide] | < 2.5 nM
11 | CC(C)(C)n1cc(NC(=O)Cc2ncc(Oc3ncnc4ccc(OC5CCNCC5)cc34)cc2F)cn1 [Compound 51, N-(1-(tert-butyl)-1H-pyrazol-4-yl)-2-(3-fluoro-5-((6-(piperidin-4-yloxy)quinazolin-4-yl)oxy)pyridin-2-yl)acetamide] | 18.7 nM
12 | Cc1cc(CC(=O)Nc2cnn(C(C)(C)C)c2)ccc1Oc1ccnc2ccc(S(=O)(=O)N(C)C)cc12 [Compound 256, N-(1-(tert-butyl)-1H-pyrazol-4-yl)-2-(4-((6-(N,N-dimethylsulfamoyl)quinolin-4-yl)oxy)-3-methylphenyl)acetamide] | < 2.5 nM
13 | CN1CC[C@@H](Oc2ccc3ncnc(Oc4cnc(CC(=O)Nc5cnn(C(C)(C)C)c5)c(F)c4)c3c2)C1 [Compound 60, (R)-N-(1-(tert-butyl)-1H-pyrazol-4-yl)-2-(3-fluoro-5-((6-((1-methylpyrrolidin-3-yl)oxy)quinazolin-4-yl)oxy)pyridin-2-yl)acetamide] | 45.7 nM
